Experimental data from US20240132480A1, “INHIBITORS OF MYCOBACTERIUM TUBERCULOSIS LIPOAMIDE DEHYDROGENASE” (Cornell University, priority 2021, published 2024).

Assays:
Mtb Lpd = Mtb Lpd (Mycobacterium tuberculosis (strain ATCC 25618 / H37Rv), UniProt P9WHH9); type: biochemical; conditions: read-out: LPD IC50
[1] = microsomes

Row | Compound | IC50 (Mtb Lpd) [nM] | Human Liver Microsome Stability [1] [µL/min/mg]
1 | CCN(CC(=O)Nc1ccc2c(c1)OCCN2C(C)(C)CO)S(=O)(=O)c1cc(C)cc2cn[nH]c12 [Example 145, 2-((N-ethyl-5-methyl-1H-indazole)-7-sulfonamido)-N-(4-(1-hydroxy-2-methylpropan-2-yl)-3,4-dihydro-2H-benzo[b][1,4]oxazin-7-yl)acetamide] | 39 | 92
2 | Cc1cc(S(=O)(=O)N(C)CC(=O)Nc2ccc3c(c2)OCCN3CC(C)(C)O)c2[nH]ncc2c1 [Example 146] | 26 | 31
3 | Cc1cc(S(=O)(=O)N2CC[C@H]2C(=O)Nc2ccc3c(c2)OCCN3C(C)(C)CO)c2[nH]ncc2c1 [Example 147] | 37 | 212
4 | Cn1ccc(NC(=O)[C@@H]2CCN2S(=O)(=O)c2cc(Cl)cc3c(F)n[nH]c23)cc1=O [Example 148] | 40 | -17
5 | Cn1ccc(NC(=O)[C@@H]2CCN2S(=O)(=O)c2cc(Cl)cc3cn[nH]c23)cc1=O [Example 149] | 61 | 14
6 | CN(CC(=O)Nc1ccn(C)c(=O)c1)S(=O)(=O)c1cc(Cl)cc2c(F)n[nH]c12 [Example 150] | 46 | 1
7 | Cn1ccc(NC(=O)[C@@H]2CCN2S(=O)(=O)c2cc(Br)cc3c(F)n[nH]c23)cc1=O [Example 151, (S)-1-((5-bromo-3-fluoro-1H-indazol-7-yl)sulfonyl)-N-(1-methyl-2-oxo-1,2-dihydropyridin-4-yl)azetidine-2-carboxamide] | 180 | -4
8 | Cn1ccc(NC(=O)[C@@H]2CCN2S(=O)(=O)c2cc(C(F)F)cc3cn[nH]c23)cc1=O [Example 152, (S)-1-((5-(difluoromethyl)-1H-indazol-7-yl)sulfonyl)-N-(1-methyl-2-oxo-1,2-dihydropyridin-4-yl)azetidine-2-carboxamide] | 58 | -7
9 | Cc1cc(S(=O)(=O)N2CC[C@H]2C(=O)Nc2ccc(N3CCN(C)CC3)c(Cl)c2)c2[nH]ncc2c1 [Example 153, (S)—N-(3-chloro-4-(4-methylpiperazin-1-yl)phenyl)-1-((5-methyl-1H-indazol-7-yl)sulfonyl)azetidine-2-carboxamide] | 48 | 113
10 | CCN(CC(=O)Nc1ccc2c(c1)OCCN2C1CCOCC1)S(=O)(=O)c1cc(C)cc2c[nH]nc12 [Example 156] | 27.4 | 58
11 | Cc1cc(S(=O)(=O)N(C)CC(=O)Nc2ccc3c(c2)OC(C)(C)CN3C)c2n[nH]cc2c1 [Example 158] | 22 | 46
12 | Cc1cc(S(=O)(=O)N(C)CC(=O)Nc2ccc3c(c2)OC(C)(C)C(=O)N3C)c2n[nH]cc2c1 [Example 159] | 19 | 67
13 | CCN(CC(=O)Nc1ccc(N2CCN(C)CC2)c(Cl)c1)S(=O)(=O)c1cc(C)cc2cn[nH]c12 [Example 160] | 106 | 107
14 | O=C(Nc1ccc2c(c1)OCCN2C1CCOCC1)[C@@H]1CCN1S(=O)(=O)c1cc(Cl)cc2cn[nH]c12 [Example 161] | 33 | 121
15 | O=C(Nc1ccc2c(c1)OCCN2C1CCOCC1)[C@@H]1CCN1S(=O)(=O)c1cc(Cl)cc2c(F)n[nH]c12 [Example 162] | 59 | 91
16 | Cc1cc(S(=O)(=O)N(C)CC(=O)Nc2ccc3c(c2)N(C2CCOCC2)CCO3)c2[nH]ncc2c1 [Example 163] | 31 | 94
17 | CN(C)CCOc1ccc(NC(=O)CN(C)S(=O)(=O)c2cccc3cn[nH]c23)cc1Cl [Example 164] | 85 | -16
18 | CN(CC(=O)Nc1ccc2c(c1)OCCN2C1CCOCC1)S(=O)(=O)c1cc(Cl)cc2c(F)n[nH]c12 [Example 165] | 37 | 162
19 | CN(CC(=O)Nc1ccc2c(c1)OCCN2C1CCOCC1)S(=O)(=O)c1cc(Cl)cc2cn[nH]c12 [Example 166] | 34 | 122
20 | Cc1cc(S(=O)(=O)N2CC[C@H]2C(=O)Nc2ccc(OCCN(C)C)c(Cl)c2)c2[nH]ncc2c1 [Example 168] | 143 | 1
21 | Cc1cc(S(=O)(=O)N(C)CC(=O)Nc2ccc3c(c2)N(C2COC2)CCO3)c2[nH]ncc2c1 [Example 169] | 38 | 39
22 | Cc1cc(S(=O)(=O)N2CCC[C@@H](C(=O)Nc3ccc4c(c3)OCCN4C3COC3)C2)c2[nH]ncc2c1 [Example 170, N-1-((5-methyl-1H-indazol-7-yl)sulfonyl)-N-(4-(oxetan-3-yl)-3,4-dihydro-2H-benzo[b][1,4]oxazin-7-yl)piperidine-3-carboxamide] | 51 | 34
23 | CN(CC(=O)Nc1ccc2c(c1)OCCN2C1CCOCC1)S(=O)(=O)c1cc(C(F)F)cc2cn[nH]c12 [Example 171, 2-((5-(difluoromethyl)-N-methyl-1H-indazole)-7-sulfonamido)-N-(4-(tetrahydro-2H-pyran-4-yl)-3,4-dihydro-2H-benzo[b][1,4]oxazin-7-yl)acetamide] | 78 | 102
24 | CN(CC(=O)Nc1ccc2c(c1)OCCN2C1COC1)S(=O)(=O)c1cc(C2(O)CC2)cc2cn[nH]c12 [Example 173] | 406 | 60
25 | CN(CC(=O)Nc1ccc2c(c1)OCCN2C1CCOCC1)S(=O)(=O)c1cc(C2(O)CC2)cc2cn[nH]c12 [Example 174] | 550 | 131
26 | CN(CC(=O)Nc1ccc2c(c1)OCCN2C1CCOCC1)S(=O)(=O)c1cc(C(F)F)cc2c(F)[nH]nc12 [Example 175, 2-((5-(difluoromethyl)-3-fluoro-N-methyl-1H-indazole)-7-sulfonamido)-N-(4-(tetrahydro-2H-pyran-4-yl)-3,4-dihydro-2H-benzo[b][1,4]oxazin-7-yl)acetamide] | 89 | 166
27 | Cc1cc(S(=O)(=O)N(C)CC(=O)Nc2ccn(C)c(=O)c2)c2n[nH]c(Cl)c2c1 [Example 176, 2-((3-chloro-N,5-dimethyl-1H-indazole)-7-sulfonamido)-N-(1-methyl-2-oxo-1,2-dihydropyridin-4-yl)acetamide] | 252 | 34
28 | CC(C)(CO)N1CCOc2cc(NC(=O)[C@@H]3CCN3S(=O)(=O)c3cc(C(F)F)cc4cn[nH]c34)ccc21 [Example 177] | 197 | 177
29 | Cc1cc(S(=O)(=O)N2CC[C@H]2C(=O)Nc2ccn(C)c(=O)c2)c2[nH]nc(Cl)c2c1 [Example 178] | 211 | -13
30 | Cc1cc(S(=O)(=O)N(C)CC(=O)Nc2ccc3c(c2)OCCN3C2CCOCC2)c2[nH]c(C#N)cc2c1 [Example 181, 2-((2-cyano-N,5-dimethyl-1H-indole)-7-sulfonamido)-N-(4-(tetrahydro-2H-pyran-4-yl)-3,4-dihydro-2H-benzo[b][1,4]oxazin-7-yl)acetamide] | 95 | 195
